Read-outs that look alike come from different tables or passages of the source.
Key:
[1] = tested on: Key Broadleaf Weed and Crop Species; assay: Post-emergent Test II herbicidal activity (Table 5); assay type: in vivo; details: post-emergence, 336 h, post-emergent, 14 days after application; for pest or weed control at 70 g/ha: 70 g ai/ha; for pest or weed control at 140 g/ha: 140 g ai/ha
Method in brief: (§1)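 Foliar application at 187 L/ha to greenhouse-grown seedlings (first or second true leaf); subirrigation thereafter. Visual 0–100% injury at 14 d relative to untreated plants.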

[2] = tested on: Key Grass and Sedge Weeds as well as Grass Crops; assay: Post-emergent Test II herbicidal activity (Table 6); assay type: in vivo; details: post-emergence, 336 h; for pest or weed control at 70 g/ha: application rate 70 g ai/ha; for pest or weed control at 140 g/ha: application rate 140 g ai/ha
Method in brief: as §1

[3] = ABUTH: velvetleaf (Abutilon theophrasti), read-out: Visual Growth Reduction (%) 14 Days After Application ABUTH
[4] = AMARE: redroot pigweed (Amaranthus retroflexus), read-out: Visual Growth Reduction (%) 14 Days After Application AMARE
[5] = BRSNN: oilseed-rape, canola (Brassica napus), read-out: Visual Growth Reduction (%) 14 Days After Application BRSNN
[6] = CHEAL: lambsquarters (Chenopodium album), read-out: Visual Growth Reduction (%) 14 Days After Application CHEAL
[7] = EPHHL: wild poinsettia (Euphorbia heterophylla), read-out: Visual Growth Reduction (%) 14 Days After Application EPHHL
[8] = HELAN: sunflower (Helianthus annuus), read-out: Visual Growth Reduction (%) 14 Days After Application HELAN
[9] = VIOTR: wild pansy (Viola tricolor), read-out: Visual Growth Reduction (%) 14 Days After Application VIOTR
[10] = CYPES: yellow nutsedge (Cyperus esculentus), read-out: Visual Growth Reduction (%) 14 Days After Application, CYPES
[11] = DIGSA: crabgrass (Digitaria sanguinalis), read-out: Visual Growth Reduction (%) 14 Days After Application, DIGSA
[12] = ECHCG: barnyardgrass (Echinochloa crus-galli), read-out: Visual Growth Reduction (%) 14 Days After Application, ECHCG
[13] = ORYSA: rice (Oryza sativa), read-out: Visual Growth Reduction (%) 14 Days After Application, ORYSA
[14] = SETFA: giant foxtail (Setaria faberi), read-out: Visual Growth Reduction (%) 14 Days After Application, SETFA
[15] = SORVU: grain sorghum (Sorghum vulgare), read-out: Visual Growth Reduction (%) 14 Days After Application, SORVU
[16] = TRZSS (wheat, Triticum aestivum), read-out: Visual Growth Reduction (%) 14 Days After Application, TRZSS
[17] = ZEAMX: maize, corn (Zea mays), read-out: Visual Growth Reduction (%) 14 Days After Application, ZEAMX

Structure (SMILES)	pest or weed control at 70 g/ha [1, 3]	pest or weed control at 140 g/ha [1, 3]	pest or weed control at 70 g/ha [1, 4]	pest or weed control at 140 g/ha [1, 4]	pest or weed control at 70 g/ha [1, 5]	pest or weed control at 140 g/ha [1, 5]	pest or weed control at 70 g/ha [1, 6]	pest or weed control at 140 g/ha [1, 6]	pest or weed control at 70 g/ha [1, 7]	pest or weed control at 140 g/ha [1, 7]	pest or weed control at 70 g/ha [1, 8]	pest or weed control at 140 g/ha [1, 8]	pest or weed control at 70 g/ha [1, 9]	pest or weed control at 140 g/ha [1, 9]	pest or weed control at 70 g/ha [2, 10]	pest or weed control at 140 g/ha [2, 10]	pest or weed control at 70 g/ha [2, 11]	pest or weed control at 140 g/ha [2, 11]	pest or weed control at 70 g/ha [2, 12]	pest or weed control at 140 g/ha [2, 12]	other results
COC(=O)c1nc(-c2cc(F)c(C(F)F)cc2F)c(F)c(N)c1Cl [Compound 176]	95 to 100%	95 to 100%	95 to 100%	95 to 100%	95 to 100%	95 to 100%	85 to 94%	85 to 94%	95 to 100%	95 to 100%	95 to 100%	95 to 100%	30 to 44%	45 to 59%	85 to 94%	95 to 100%	45 to 59%	60 to 74%	85 to 94%	85 to 94%	pest or weed control at 70 g/ha [2, 13]: 0 to 29%; pest or weed control at 140 g/ha [2, 13]: 0 to 29%; pest or weed control at 70 g/ha [2, 14]: 85 to 94%; pest or weed control at 140 g/ha [2, 14]: 85 to 94%; pest or weed control at 70 g/ha [2, 15]: 60 to 74%; pest or weed control at 140 g/ha [2, 15]: 85 to 94%; pest or weed control at 70 g/ha [2, 16]: 30 to 44%; pest or weed control at 140 g/ha [2, 16]: 45 to 59%; pest or weed control at 70 g/ha [2, 17]: 0 to 29%; pest or weed control at 140 g/ha [2, 17]: 85 to 94%; melting point: 135.2 to 136.9 °C
COC(=O)c1nc(-c2cc(F)c(OC(F)F)cc2F)cc(N)c1Cl [Compound 177]	85 to 94%	85 to 94%	75 to 84%	85 to 94%	30 to 44%	75 to 84%	75 to 84%	85 to 94%	95 to 100%	95 to 100%	30 to 44%	0 to 29%	0 to 29%	0 to 29%	45 to 59%	45 to 59%	0 to 29%	0 to 29%	0 to 29%	60 to 74%	pest or weed control at 70 g/ha [2, 13]: 0 to 29%; pest or weed control at 140 g/ha [2, 13]: 0 to 29%; pest or weed control at 70 g/ha [2, 14]: 30 to 44%; pest or weed control at 140 g/ha [2, 14]: 45 to 59%; pest or weed control at 70 g/ha [2, 15]: 0 to 29%; pest or weed control at 140 g/ha [2, 15]: 45 to 59%; pest or weed control at 70 g/ha [2, 16]: 30 to 44%; pest or weed control at 140 g/ha [2, 16]: 30 to 44%; pest or weed control at 70 g/ha [2, 17]: 0 to 29%; pest or weed control at 140 g/ha [2, 17]: 0 to 29%; melting point: 107.5 to 110.3 °C

— patent publication US9113629B2, “4-amino-6-(4-substituted-phenyl)-picolinates and 6-amino-2-(4-substituted-phenyl)-pyrimidine-4-carboxylates and their use as herbicides” (DOW AGROSCIENCES LLC, priority 2013, dated 2015)
